In US20060142247A1, “Tricyclic heterocycles” (priority 2004, published 2006):

Key:
Aurora A = biological target: T1, Aurora A (Homo sapiens, UniProt O14965); test: IC50 determination for inhibitors of Aurora A (96 MTP-ELISA); type: biochemical; details: His4-tagged full-length Aurora A 250 ng/ml, PKB-GSK2 200 nM, ATP 4 μM, 90 min room temperature, read-out: IC50 Aurora A kinase inhibition
T1 construct: C-terminally Histidine4 (His4)-tagged Aurora A full-length protein; His4 (C)
T1 sequence (O14965 1-403): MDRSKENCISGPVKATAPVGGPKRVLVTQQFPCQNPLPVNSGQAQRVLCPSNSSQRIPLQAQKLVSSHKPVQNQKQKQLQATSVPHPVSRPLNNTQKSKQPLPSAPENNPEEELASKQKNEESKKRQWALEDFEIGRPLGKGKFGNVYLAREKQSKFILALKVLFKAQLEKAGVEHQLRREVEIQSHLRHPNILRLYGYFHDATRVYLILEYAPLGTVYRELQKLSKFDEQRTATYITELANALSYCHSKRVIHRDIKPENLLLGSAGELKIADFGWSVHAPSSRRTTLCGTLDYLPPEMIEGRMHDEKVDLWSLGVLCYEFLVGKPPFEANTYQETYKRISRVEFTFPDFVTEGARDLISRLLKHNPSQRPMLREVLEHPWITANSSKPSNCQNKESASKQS
Description: Aurora A is a serine threonine kinase involved in spindle assembly and chromosome segregation. The assay is a typically ELISA-type assay where biotinylated substrate (PKB-GSK2) is phosphorylated. Phosphorylation is detected by peroxidase (POD) labelled polyclonal antibody (PAK<M-Ig>S-IgG-POD) and phosphopeptide monoclonal antibody (Mab) (MAK<P-GSK>M-27E5-IgG). The assay is validated for IC50-determination.
Assay plates: 96-well polystyrene plates, streptavidin-coated,
Samples: 10 mM in dimethylsulfoxide (DMSO)
Aurora A-His-4: C-terminally Histidine4 (His4)-tagged Aurora A full-length protein, stock solution 0.7 mg/ml, final conc.: 250 ng/ml
PKB-GSK2: biotinylated peptide derived from human GSK3-alpha sequence (Biotin-SGRARTSSFAEPGG-CONH2), stock solution 600 μM, final conc.: 200 nM
PAK<M-Ig>S-IgG-POD: Anti-mouse IgG, horse radish peroxidase(HRP)-linked Antibody, diluted in 3% BSA/PBS-T (1:10000), (Cell Signaling, Cat. No.: 7076)
MAK<P-GSK>M-27E5-IgG: Phospho-GSK-3-alpha (Ser 21) (27E5) Monoclonal Antibody, stock solution 1.85 mg/ml, diluted in 3% BSA/PBS-T (1:6000), final conc.: 0.31 μg/ml, (Cell Signaling, Cat. No.: 9337B)
ATP: Adenosine-5′-triphosphate 1 mM, diluted in kinase buffer, (Roche Diagnostics GmbH, Cat. No.: 127531-001,), final conc.: 4 μM
TRIS: 2-Amino-2-hydroxymethyl-1,3-propoanediol (“tris-(hydroxymethyl)-aminomethane”) (MERCK, Cat. No.: 108382.2500)
BSA: Bovine Serum Albumin Fraction V, fatty acid free (Roche Diagnostics GmbH, Cat. No. 9100221)
EDTA Titriplex III (di-Sodium-EDTA di-Hydrate), 120 mM, (MERCK, Cat. No.: 1.08418.1000)
ABTS buffer: ABTS (2,2′-azino-bis(3-ethylbenzthiazoline-6-sulfonic acid)) 16.7 mg/ml (Roche Diagnostics GmbH, Cat. No.: 1204530) • ABTS tablets: dissolve one ABTS tablet in 50 ml of working solution (ABTS buffer) (Roche Diagnostics GmbH, Cat. No.: 1112422 ) • Tween 20: Polysorbat 20 (Roche Diagnostics GmbH, Cat. No.: 10006394-001) • DTT: 1,4-Dithiothreitol (Roche Diagnostics GmbH, Cat. No.: 197777) • MgCl2×6H2O MERCK, Cat. No.: 105833.1000 • Kinase buffer: 50 mM TRIS, 10 mM MgCl2, 1 mM DTT, 0.1% Tween 20, pH 7.8 PBS-T (=Wash buffer) (PBS-T)10 g/l PBS(Phosphate buffered saline) with 0.033% Tween 20 • 3% BSA/PBS-T: 3% BSA dissolved in PBS-T Method
This assay is performed in 96-well format for IC50 determination with 5 samples (each with 8 concentrations by twofold testing), 100 μl incubation volume and the following plate layout:
S samples, with ATP, 1% DMSO, final conc.: a=100 μM, b=20 μM, c=4 μM, d=0.8 μM, e=0.16 μM, f=0.032 μM, g=0.0064 μM, h=0.00128 μM Step/Action • (1) Sample preparation: add 24 μl per well samples (descending sequence) diluted in kinase buffer to assay plate (final conc. for DMSO 1%). • 2. Add directly 16 μl Aurora-A-his-4 diluted in kinase buffer to assay plate. • 3. Add directly 40 μl per well PKB-GSK2/ATP mixture to assay plate, (final conc.: Aurora A=250 ng/ml, GSK2=200 nM, ATP=4 μM). Negative control: without ATP. • 4. Incubate assay plate for exactly 90 min at room temperature. • 5. Stop reaction by adding 20 μl EDTA in all wells. • 6. Wash assay plate 3× with 200 μl washing buffer per well. • 7. Add 100 μl MAK<P-GSK>M27E5-IgG (1:10000) and PAK<M-Ig>S-IgG-POD (1:6000) dissolved in 3% BSA/PBS-T to assay plate per well. • 8. Incubate assay plate for 60 min at room temperature. • 9. Wash assay plate 3× with 200 μl washing buffer per well • 10. Add 100 μl ABTS solution to assay plate per well, incubate for approx. 4 min at RT on MTP shaker. • 11. Measure absorption at 405/492 nm. • 12. Calculate % inhibition as: (1−(Esample−ENC)/(EPC−ENC))×100 1)
13. Calculate IC50 using a non-linear curve fit (XLfit software (ID Business Solution Ltd., Guilford, Surrey, UK))

HCT 116 cells = test: Viability assay HCT 116 cells (CellTiter-Glo); type: cell-based; details: Homo sapiens, HCT-116, 120 h, HCT 116 human colon carcinoma cells, 5 days incubation, CellTiter-Glo luminescence
Description: Viability Assay—HCT 116 Cells
A viability assay was performed using the CellTiter-Glo® Luminescent Cell Viability Assay (see Promega Corporation's Technical Bulletin No. 288, pp. 1-11 [revised 2/04] which is hereby incorporated by reference in its entirety). This assay is a homogeneous method of determining the number of viable cells in culture based on quantitation of the ATP present, an indicator of metabolically active cells. The assay is designed for use with multiwell formats, making it ideal for automated high-throughput screening (HTS), cell proliferation and cytotoxicity assays. The homogeneous assay procedure involves adding a single reagent (containing luciferase, luciferan substrate, and buffer) directly to cells cultured in serum-supplemented medium. Cell washing, removal of medium and multiple pipetting steps are not required. The system detects as few as 15 cells/well in a 384-well format in 10 minutes after adding reagent and mixing.
The homogeneous “add-mix-measure” format results in cell lysis and generation of a luminescent signal proportional to the amount of ATP present. The amount of ATP is directly proportional to the number of cells present in culture. The above-referenced assay generates a “glow-type” luminescent signal, produced by the luciferase reaction, which has a half-life generally greater than five hours, depending on cell type and medium used. The extended half-life eliminates the need to use reagent injectors and provides flexibility for continuous or batch mode processing of multiple plates. The unique homogeneous format avoids errors that may be introduced by other ATP measurement methods that require multiple steps.
HCT 116 cells (human colon carcinoma, ATCC-No. CCl-247) were cultivated in RPMI 1640 medium with GlutaMAX™ I (cell culture media that contains L-Alanyl-L-Glutamine [a stabilized a form/source of L-Glutamine] from Invitrogen, Cat-No. 61870-010), 2.5% Fetal Calf Serum (FCS, Sigma Cat-No. F4135 (FBS)); 100 Units/ml penicillin/100 μg/ml streptomycin (=Pen/Strep from Invitrogen Cat. No. 15140). For the assay the cells were seeded in 384 well plates, 1000 cells per well, in the same medium. The next day the test compounds were added in various concentrations ranging from 30 μM to 0.0015 μM (10 concentrations, 1:3 diluted). After 5 days the viability assay was done according to the instructions of the manufacturer. In brief: the cell-plate was equilibrated to room temperature for approximately 30 minutes and than the reagent (containing luciferase, luciferan substrate, and buffer) was added. The contents were carefully mixed for 15 minutes to induce cell lysis. After 45 minutes the luminescent signal was measured in Victor 2, (scanning multiwell spectrophotometer, Wallac).
Medium: RPMI 1640 with cell culture media containing L-Alanyl-L-Glutamine [GlutaMAX™ I (Invitrogen, Cat-Nr. 61870)], 5% FCS (Sigma Cat.-No. F4135), Pen/Strep (Invitrogen, Cat No. 15140). • HCT116 (ATCC-No. CCl-247): 1000 cells in 60 μl per well of 384 well plate (Greiner 781098, μClear-plate white) • After seeding incubate plates 24 h at 37° C., 5% CO2 2nd. Day: Induction (Treatment with Compounds, 10 Concentrations):
In order to achieve a final concentration of 30 μM as highest concentration […] of 10 mM compound stock solution were added directly to 163 μl media. Then step e) of the dilution procedure described below, was followed.

Row | SMILES | IC50 (Aurora A) | IC50 (HCT 116 cells)
1 | CC1(C)CC(=O)Nc2cc3nc(-c4n[nH]c5ccccc45)[nH]c3cc21 [Example 10, 2-(1H-Indazol-3-yl)-8,8-dimethyl-1,5,7,8-tetrahydro-imidazo[4,5-g]quinolin-6-one] | 100 to 250 nM | –
2 | CC1(C)C(=O)N(Cc2cccnc2)c2cc3[nH]c(-c4n[nH]c5ccccc45)nc3cc21 [Example 16, 2-(1H-Indazol-3-yl)-7,7-dimethyl-5-pyridin-3-ylmethyl-5,7-dihydro-3H-imidazo[4,5-f]indol-6-one] | 1 to 100 nM | –
3 | COCCN1C(=O)C(C)(C)c2cc3nc(-c4n[nH]c5ccccc45)[nH]c3cc21 [Example 18, 2-(1H-Indazol-3-yl)-5-(2-methoxy-ethyl)-7,7-dimethyl-5,7-dihydro-3H-imidazo[4,5-f]indol-6-one] | 1 to 100 nM | –
4 | CC1(C)C(=O)N(CC(O)CN2CCOCC2)c2cc3[nH]c(-c4n[nH]c5ccccc45)nc3cc21 (stereo not drawn) [Example 29, 5-(2-Hydroxy-3-morpholin-4-yl-propyl)-2-(1H-indazol-3-yl)-7,7-dimethyl-5,7-dihydro-3H-imidazo[4,5-f]indol-6-one] | 1 to 100 nM | –
5 | CC1(C)C(=O)N(Cc2nnn[nH]2)c2cc3[nH]c(-c4n[nH]c5ccccc45)nc3cc21 [Example 33, 2-(1H-Indazol-3-yl)-7,7-dimethyl-5-(1H-tetrazol-5-ylmethyl)-5,7-dihydro-3H-imidazo[4,5-f]indol-6-one] | 1 to 100 nM | –
6 | CN(C)CCNC(=O)CN1C(=O)C(C)(C)c2cc3nc(-c4n[nH]c5ccccc45)[nH]c3cc21 [Example 38, N-(2-Dimethylamino-ethyl)-2-[2-(1H-indazol-3-yl)-7,7-dimethyl-6-oxo-6,7-dihydro-3H-imidazo[4,5-f]indol-5-yl]-acetamide] | 1 to 100 nM | –
7 | CN1CCN(C(=O)CN2C(=O)C(C)(C)c3cc4nc(-c5n[nH]c6ccccc56)[nH]c4cc32)CC1 [Example 42, 2-(1H-Indazol-3-yl)-7,7-dimethyl-5-[2-(4-methyl-piperazin-1-yl)-2-oxo-ethyl]-5,7-dihydro-3H-imidazo[4,5-f]indol-6-one] | 1 to 100 nM | –
8 | CC1(C)C(=O)N(CC(=O)N2CCCCC2)c2cc3[nH]c(-c4n[nH]c5ccccc45)nc3cc21 [Example 44, 2-(1H-Indazol-3-yl)-7,7-dimethyl-5-(2-oxo-2-piperidin-1-yl-ethyl)-5,7-dihydro-3H-imidazo[4,5-f]indol-6-one] | 1 to 100 nM | –
9 | CC1(C)C(=O)N(CC(=O)NCC(O)CO)c2cc3[nH]c(-c4n[nH]c5ccccc45)nc3cc21 (stereo not drawn) [Example 48, N-(2,3-Dihydroxy-propyl)-2-[2-(1H-indazol-3-yl)-7,7-dimethyl-6-oxo-6,7-dihydro-3H-imidazo[4,5-f]indol-5-yl]-acetamide] | 1 to 100 nM | –
10 | CC(C)N1C(=O)C(C)(C)c2cc3[nH]c(-c4n[nH]c5ccc(NS(=O)(=O)c6ccccc6S(C)(=O)=O)cc45)nc3cc21 [Example 143, N-[3-(5-Isopropyl-7,7-dimethyl-6-oxo-1,5,6,7-tetrahydro-imidazo[4,5-f]indol-2-yl)-1H-indazol-5-yl]-2-methanesulfonyl-benzenesulfonamide] | – | 100 to 1000 nM
11 | CC(C)N1C(=O)C(C)(C)c2cc3[nH]c(-c4n[nH]c5ccc(NS(=O)(=O)c6ccccc6[N+](=O)[O-])cc45)nc3cc21 [Example 144, N-[3-(5-Isopropyl-7,7-dimethyl-6-oxo-1,5,6,7-tetrahydro-imidazo[4,5-f]indol-2-yl)-1H-indazol-5-yl]-2-nitro-benzenesulfonamide] | – | 100 to 1000 nM
12 | CCN1C(=O)C(C)(C)c2cc3nc(-c4n[nH]c5ccc(NC(C)=O)cc45)[nH]c3cc21 [Example 145, N-[3-(5-Ethyl-7,7-dimethyl-6-oxo-3,5,6,7-tetrahydro-imidazo[4,5-f]indol-2-yl)-1H-indazol-5-yl]-acetamide] | – | 1000 to 10000 nM
